The values that follow are results of earlier work, collected in patent publication US6962905B1, “Pharmaceutical formulation comprising a low molecular weight thrombin inhibitor and its prodrug” (AstraZeneca AB, priority 1999, dated 2005).

For this data set, the system named is DVT after total hip/knee replacement or major surgery. Particulars: background statements from literature.

Regarding `CC(=O)CC(c1ccccc1)c1c(O)c2ccccc2oc1=O` (stereo not drawn) [warfarin], the “effect on incidence of DVT after surgery” value was “effective in reducing DVT”.

As for hirudin, the “effect on incidence of DVT after surgery” value is “superior to unfractionated heparin and LMWH”. For `CC(=O)Oc1ccccc1C(=O)O` [aspirin], the “effect on incidence of DVT after surgery” value is given as “limited efficacy”.
